Drawing on patent publication US6518272B2, “Cycloalkyl-substituted aryl-piperazines, piperidines and tetrahydropyridines as serotonergic agents” (Wyeth, priority 1998, dated 2003), this text covers melting point for 11 compounds.

Structures can show the parent of a compound that is named as a salt.

On to `COc1ccccc1N1CCN(C[C@@H](CC2CCCCC2)NC(=O)C2(C)CCCCC2)CC1` (as salt: hydrochloride) (hydrate or solvate) [Example 2, 1-Methyl-cyclohexanecarboxylic Acid of {(1R)-1-Cyclohexylmethyl-2-[4-(2-methoxyphenyl)-piperazin-1-yl]-ethyl}-amide], for which the melting point was in the range of 119 to 121 °C.

Compound `COc1ccccc1N1CCN(C[C@@H](CC2CCCCC2)N(C)C(=O)C2(C)CCCCC2)CC1` (as salt: hydrochloride) [Example 4, 1-Methyl-cyclohexanecarboxylic Acid {(1R)-1-Cyclohexylmethyl-2-[4-(2-methoxyphenyl)-piperazin-1-yl]-ethyl}-methyl-amide] showed a melting point of 208 to 210 °C.

In turn, `COc1ccccc1C1CCN(C[C@@H](CC2CCCCC2)NC(=O)C2CCCCC2)CC1` (as salt: hydrochloride) (hydrate or solvate) [Example 15, Cyclohexanecarboxylic Acid {(1R)-1-Cyclohexylmethyl-2-[4-(2-methoxyphenyl)-piperidin-1-yl]-ethyl}-amide] came in with a melting point of 100 to 103 °C. Then `COc1ccccc1C1=CCN(C[C@@H](CC2CCCCC2)NC(=O)C2(C)CCCCC2)CC1` (as salt: hydrochloride) (hydrate or solvate) [Example 21, 1-Methyl-cyclohexanecarboxylic Acid {(1R)-1-Cyclohexylmethyl-2-[4-(2-methoxyphenyl)-3,6-dihydro-2H-pyridin-1-yl]-ethyl}-amide], with 93 to 95 °C; and `O=C(N[C@H](CC1CCCCC1)CN1CCN(c2ncccn2)CC1)C1CCC1` (as salt: hydrochloride) [Example 11, Cyclobutane Carboxylic Acid {(1R)-1-Cyclohexylmethyl-2-[4-(pyrimidin-2-yl)-piperazin-1-yl]-ethyl}-amide], with 112 to 114 °C. Consider `COc1cccc(N2CCN(C[C@H](CC3CCCCC3)NC(=O)C3CCCCC3)CC2)n1` (as salt: hydrochloride) [Example 12, Cyclohexane Carboxylic Acid {(1S)-1-Cyclohexylmethyl-2-[4-(6methoxypyridin-2-yl)-piperazin-1-yl]-ethyl}-amide], for which the melting point fell in the range of 107 to 109 °C. Then `CN(C(=O)C1(C)CCCCC1)[C@H](CC1CCCCC1)CN1CCN(c2cccc3[nH]ccc23)CC1` (as salt: hydrochloride) [Example 8], with 253 to 254 °C. For `COc1ccccc1C1CCN(C[C@@H](CC2CCCCC2)N(C)C(=O)C2(C)CCCCC2)CC1` (as salt: hydrochloride) (hydrate or solvate) [Example 18, 1-Methyl-cyclohexanecarboxylic Acid {(1R)-1-Cyclohexylmethyl-2-[4-(2-methoxypheniyl)-piperidin-1-yl]-ethyl}-methyl-amide], the melting point was in the range of 169 to 171 °C. In turn, `CN(C(=O)C1CCCCC1)[C@H](CC1CCCCC1)CN1CCN(c2cccc3c2OCCO3)CC1` (as salt: hydrochloride) (hydrate or solvate) [Example 5] yielded a melting point of 147 to 148 °C. To `COc1ccccc1C1CCN(C[C@@H](CC2CCCCC2)N(C)C(=O)C(C)(C)C)CC1` (as salt: hydrochloride) (hydrate or solvate) [Example 20, N-{(1R)-1-Cyclohexylmethyl-2-[4-(2-methoxyphenyl)-piperidin-1-yl]-ethyl}-2,2,N-trimethyl-propionamide] belongs 233 to 236 °C; to `COc1ccccc1C1CCN(C[C@@H](CC2CCCCC2)NC(=O)C2(C)CCCCC2)CC1` (as salt: hydrochloride) (hydrate or solvate) [Example 16, 1-Methyl-cyclohexanecarboxylic acid {(1R)-1-cyclohexylmethyl-2-[4-(2-methoxyphenyl)-piperidin-1-yl]-ethyl}-amide], 208 to 210 °C.

As usually defined, the melting point is the temperature of the solid-liquid transition.
